Results: PMC5769417, “Single- and Multiple-Dose Trials to Determine the Pharmacokinetics, Safety, Tolerability, and Sex Effect of Oral Ginsenoside Compound K in Healthy Chinese Volunteers” (Frontiers in Pharmacology, 2018)
Several values for one entry are separate records, joined by “and”; a condition that tells them apart may be missing. Equal values may be shown once. Read-outs that look alike come from different tables or passages of the source.

Test: Multiple-dose trial, plasma pharmacokinetics
Type: in vivo, human
Conditions: for MRT last / AUC / concentration at 15 day / half-life / Tmax / AUC(0-inf) / AUC(0-t) / MRT inf / Cmax: human, plasma; for AUC: Day 15, read-out: AUCτ (zero to 24 h); for concentration at 15 day: Day 15, steady state, read-out: Cmin
Experimental: Multiple-dose pharmacokinetics: […] Multiple-dose pharmacokinetics: […] All samples were preserved at −70°C and analyzed with a LC-MS/MS (API 4000 LC-MS/MS, ABI Company, Foster City, CA, USA) at the Institute of Clinical Pharmacology, Central South University (Changsha, China). […] An aqueous solution of a stable internal standard (IS for CK: digoxin, Shijiaoke Biological Technology Co. Ltd., Beijing, China; IS for PPD: coumarin, Sigma-Aldrich, St. Louis, USA) and 1 M phosphate buffer were added to 0.5 ml of thawed sample, and analytical standards and quality control (QC) samples were prepared in the same matrix. All samples were treated with 2 ml of methyl tert-butyl ether (MTBE, CNW technologies GmbH, Duesseldorf, Germany) to precipitate the bulk of plasma proteins. After mechanical shock by mixing for 10 min and a subsequent centrifugation (4,000 rpm, 4°C, 10 min), 1.4 ml of the supernatant was transferred and blow-dried with nitrogen in a water bath at 40°C. Lastly, the residue was dissolved in 100 μl of mobile phase and then was subjected to a mechanical shock by mixing, and centrifuged. The supernatant was subsequently injected into the column for analysis. […] Accuracy and precision of the assay were determined by evaluating the performance of the assay controls. Over the quantification range, the accuracy of the QC samples varied from 85 to 115% and the intra- and inter-assay imprecision was <15%. […] The area under the curve (AUC) from time zero to the last time point (AUClast) and the AUC extrapolated to infinity (AUCinf) were calculated using the linear trapezoidal rule. The slope (elimination rate constant, K) of the terminal phase of the plasma concentration-time profile was determined, using a weighting factor of 1, by the method of least squares (log-linear regression of at least three data points). The t1/2 was estimated as (ln2)/K. […] The apparent volume of distribution (V/F) was equal to (CL/F)/K. The mean residence time (MRT) was calculated as the area under the first moments curve (AUMC) divided by AUC. The dose-normalized PK parameters e.g., Cmax/D and AUClast/D, were obtained by dividing each PK result by the administered dose. The cumulative excretion rate was calculated as the amount of unchanged drug in the urine over a time interval divided by the dose and was expressed as thousand points (‰). On day 15 in the multiple-dose trial, the PK parameters, such as t1/2, CL/F, and V/F at steady state were calculated using the same method as that used for the single-dose trial. In addition, the Tmax at steady state (Tmax,ss), Cmax at steady state (Cmax,ss), and Cmin,ss were obtained from experimental observation after the steady state during the multiple-dose trial. […] The average steady-state drug concentration (Cavg) is calculated as AUCτ/τ, and the fluctuation ratio was calculated as (Cmax,ss − Cmin,ss)/Cavg. The accumulation index was calculated using dosing interval and elimination rate constant as in the following equation: 1/(1 − e^−Kτ).

[1] = 100 mg oral after breakfast, Day 1
[2] = 100 mg qd oral after breakfast, Day 15
[3] = 200 mg oral after breakfast, Day 1
[4] = 200 mg qd oral after breakfast, Day 15
[5] = 400 mg oral after breakfast, Day 1
[6] = 400 mg qd oral after breakfast, Day 15
[7] = both sexes, 100 mg qd oral after breakfast
[8] = both sexes, 200 mg qd oral after breakfast
[9] = both sexes, 400 mg qd oral after breakfast
[10] = both sexes, po, 100 mg, 100 mg oral after breakfast, Day 1
[11] = both sexes, po, 100 mg, 100 mg qd oral after breakfast, Day 15
[12] = both sexes, po, 200 mg, 200 mg oral after breakfast, Day 1
[13] = both sexes, po, 200 mg, 200 mg qd oral after breakfast, Day 15
[14] = both sexes, po, 400 mg, 400 mg oral after breakfast, Day 1
[15] = both sexes, po, 400 mg, 400 mg qd oral after breakfast, Day 15

## CC(C)=CCC[C@](C)(OC1O[C@H](CO)[C@@H](O)[C@H](O)[C@H]1O)[C@H]1CC[C@]2(C)[C@@H]1[C@H](O)C[C@@H]1[C@@]3(C)CC[C@H](O)C(C)(C)[C@@H]3CC[C@]12C (stereo partly drawn) [CK, 20-O-beta-D-glucopyranosyl-20(S)-protopanaxadiol]
[1]
  CL/F: 11.6 ± 3.0 l·h ^−1
  V/F: 402 ± 54 L
[2]
  AUMCτ (zero to 24 h): 60141.5 ± 17696.2 ng·h/mL
  CL/F: 13.4 ± 3.6 l·h ^−1
  Fluctuation: 259.42% and 259.42 ± 48.85%
  V/F: 661 ± 242 L
100 mg qd, 1/(1 − e^−Kτ)
  Accumulation index: 2.62 and 2.62 ± 0.62
[3]
  CL/F: 9.6 ± 3.1 l·h ^−1
  V/F: 326 ± 137 L
[4]
  AUMCτ (zero to 24 h): 179177.1 ± 49122.9 ng·h/mL
  CL/F: 8.6 ± 2.5 l·h ^−1
  Fluctuation: 289.25% and 289.25 ± 35.75%
  V/F: 455 ± 152 L
200 mg qd, 1/(1 − e^−Kτ)
  Accumulation index: 2.78 and 2.78 ± 0.73
[5]
  CL/F: 9.4 ± 2.4 l·h ^−1
  V/F: 358 ± 118 L
[6]
  AUMCτ (zero to 24 h): 306621.5 ± 78711.0 ng·h/mL
  CL/F: 10.3 ± 3.0 l·h ^−1
  Fluctuation: 273.98% and 273.98 ± 37.16%
  V/F: 514 ± 188 L
400 mg qd, 1/(1 − e^−Kτ)
  Accumulation index: 2.60 and 2.60 ± 0.31
100–400 mg qd
  accumulation index range: 2.60–2.78
Day 1, Female
  AUCinf/D, dose-normalized AUCinf: 116.58 ± 28.07^* h·ng·ml^−1·mg^−1
  AUClast/D, dose-normalized AUClast: 114.23 ± 27.97 ng·h/mL/mg
  Cmax/D, dose-normalized Cmax: 14.49 ± 4.07 ng/mL/mg
Day 1, Male
  AUCinf/D, dose-normalized AUCinf: 94.22 ± 24.54 ng·h/mL/mg
  AUClast/D, dose-normalized AUClast: 92.27 ± 24.00 ng·h/mL/mg
  Cmax/D, dose-normalized Cmax: 11.00 ± 4.25 ng/mL/mg
Day 1, all subjects
  AUCinf/D, dose-normalized AUCinf: 105.41 ± 28.29 ng·h/mL/mg
  AUClast/D, dose-normalized AUClast: 103.25 ± 27.94 ng·h/mL/mg
  Cmax/D, dose-normalized Cmax: 12.74 ± 4.46 ng/mL/mg
Day 1, between sexes
  AUCinf/D, GMR (95% CI): 1.25 (1.03–1.51)
  AUClast/D, GMR (95% CI): 1.25 (1.03–1.51)
  Cmax/D, GMR (95% CI): 1.37 (1.04–1.80)
Day 1 vs Day 15
  AUCinf/D, GMR (95% CI): 0.75 (0.64–0.87)
  AUClast/D, GMR (95% CI): 0.79 (0.67–0.91)
  Cmax/D, GMR (95% CI): 1.00 (0.82–1.22)
Day 15, Female
  AUCinf/D, dose-normalized AUCinf: 153.33 ± 30.98 ng·h/mL/mg
  AUClast/D, dose-normalized AUClast: 143.45 ± 29.33 ng·h/mL/mg
  Cmax/D, dose-normalized Cmax: 14.25 ± 3.38 ng/mL/mg
Day 15, Male
  AUCinf/D, dose-normalized AUCinf: 132.87 ± 52.60 ng·h/mL/mg
  AUClast/D, dose-normalized AUClast: 123.74 ± 47.85 ng·h/mL/mg
  Cmax/D, dose-normalized Cmax: 11.18 ± 5.19 ng/mL/mg
Day 15, all subjects
  AUCinf/D, dose-normalized AUCinf: 143.10 ± 43.67 ng·h/mL/mg
  AUClast/D, dose-normalized AUClast: 133.59 ± 40.26 ng·h/mL/mg
  Cmax/D, dose-normalized Cmax: 12.71 ± 4.58 ng/mL/mg
Day 15, between sexes
  AUCinf/D, GMR (95% CI): 1.21 (0.96–1.53)
  AUClast/D, GMR (95% CI): 1.21 (0.96–1.52)
  Cmax/D, GMR (95% CI): 1.36 (1.04–1.76)
Both sexes, 100 mg oral after breakfast, Day 1
  MRT last: 12.2 ± 1.4 h
[7]
  AUC: 8000 ± 2320 ng·h/mL
  concentration at 15 day: 333 ± 96.7 ng/mL
Both sexes, 200 mg oral after breakfast, Day 1
  MRT last: 12.6 ± 1.6 h
[8]
  AUC: 24700 ± 6290 ng·h/mL
  concentration at 15 day: 1030 ± 262 ng/mL
Both sexes, 400 mg oral after breakfast, Day 1
  MRT last: 12.5 ± 1 h
[9]
  AUC: 41400 ± 10400 ng·h/mL
  concentration at 15 day: 1730 ± 432 ng/mL
Both sexes, oral, 400 mg, Day 1, 100, 200 or 400 mg, read-out: mean t1/2 across the dose groups
  half-life: 23.4 to 26.1 h
Both sexes, oral, 400 mg, Day 1, 100, 200 or 400 mg, read-out: median Tmax across the dose groups
  Tmax: 2.5 to 3 h
Both sexes, oral, Day 1, all subjects, read-out: Tmax, median (range)
  Tmax: 3 h
Both sexes, oral, Day 1, all subjects, read-out: t1/2 (converted)
  half-life: 24.9 ± 5.8 h
Both sexes, oral, Day 15, all subjects, read-out: Tmax, median (range)
  Tmax: 3.5 h
Both sexes, oral, Day 15, all subjects, read-out: t1/2 (converted)
  half-life: 35.3 ± 9.6 h
[10]
  AUC(0-inf): 9070 ± 2060 ng·h/mL
  AUC(0-t): 8880 ± 1990 ng·h/mL
  MRT inf: 14.6 ± 2.1 h
Both sexes, po, 100 mg, 100 mg oral after breakfast, Day 1, read-out: Cmax
  Cmax: 1120 ± 411 ng/mL
Both sexes, po, 100 mg, 100 mg oral after breakfast, Day 1, read-out: t1/2 (converted)
  half-life: 25.2 ± 5.6 h
[11]
  AUC(0-inf): 11100 ± 3230 ng·h/mL
  AUC(0-t): 10400 ± 3010 ng·h/mL
  MRT inf: 17 ± 2.2 h
Both sexes, po, 100 mg, 100 mg qd oral after breakfast, Day 15, read-out: Cmax
  Cmax: 934 ± 323 ng/mL
Both sexes, po, 100 mg, 100 mg qd oral after breakfast, Day 15, read-out: Tmax, median (range)
  Tmax: 3.8 h
Both sexes, po, 100 mg, 100 mg qd oral after breakfast, Day 15, read-out: t1/2 (converted)
  half-life: 34.6 ± 10.5 h
[12]
  AUC(0-inf): 22700 ± 6350 ng·h/mL
  AUC(0-t): 22300 ± 6320 ng·h/mL
  MRT inf: 14.9 ± 2 h
Both sexes, po, 200 mg, 200 mg oral after breakfast, Day 1, read-out: Cmax
  Cmax: 2880 ± 984 ng/mL
Both sexes, po, 200 mg, 200 mg oral after breakfast, Day 1, read-out: Tmax, median (range)
  Tmax: 3 h
Both sexes, po, 200 mg, 200 mg oral after breakfast, Day 1, read-out: t1/2 (converted)
  half-life: 23.4 ± 7.9 h
[13]
  AUC(0-inf): 34000 ± 9060 ng·h/mL
  AUC(0-t): 31600 ± 8130 ng·h/mL
  MRT inf: 16.1 ± 1.6 h
Both sexes, po, 200 mg, 200 mg qd oral after breakfast, Day 15, read-out: Cmax
  Cmax: 3180 ± 877 ng/mL
Both sexes, po, 200 mg, 200 mg qd oral after breakfast, Day 15, read-out: Tmax, median (range)
  Tmax: 3.5 h
Both sexes, po, 200 mg, 200 mg qd oral after breakfast, Day 15, read-out: t1/2 (converted)
  half-life: 37.3 ± 12.3 h
[14]
  AUC(0-inf): 44900 ± 11200 ng·h/mL
  AUC(0-t): 43900 ± 11100 ng·h/mL
  MRT inf: 15.2 ± 1.5 h
Both sexes, po, 400 mg, 400 mg oral after breakfast, Day 1, read-out: Cmax
  Cmax: 5060 ± 1650 ng/mL
Both sexes, po, 400 mg, 400 mg oral after breakfast, Day 1, read-out: Tmax, median (range)
  Tmax: 3 h
Both sexes, po, 400 mg, 400 mg oral after breakfast, Day 1, read-out: t1/2 (converted)
  half-life: 26.1 ± 3.3 h
[15]
  AUC(0-inf): 59200 ± 13300 ng·h/mL
  AUC(0-t): 55200 ± 12800 ng·h/mL
  MRT inf: 17.9 ± 1.8 h
Both sexes, po, 400 mg, 400 mg qd oral after breakfast, Day 15, read-out: Cmax
  Cmax: 5170 ± 1500 ng/mL
Both sexes, po, 400 mg, 400 mg qd oral after breakfast, Day 15, read-out: t1/2 (converted)
  half-life: 34.2 ± 5.3 h
female, oral, Day 1, Female, read-out: Tmax, median (range)
  Tmax: 3 h
female, oral, Day 1, Female, read-out: t1/2 (converted)
  half-life: 26.4 ± 6.2 h
female, oral, Day 15, Female, read-out: Tmax, median (range)
  Tmax: 3.5 h
female, oral, Day 15, Female, read-out: t1/2 (converted)
  half-life: 36.3 ± 1.05 h
male, oral, Day 1, Male, read-out: Tmax, median (range)
  Tmax: 3 h
male, oral, Day 1, Male, read-out: t1/2 (converted)
  half-life: 23.3 ± 5.2 h
male, oral, Day 15, Male, read-out: Tmax, median (range)
  Tmax: 3.5 h
male, oral, Day 15, Male, read-out: t1/2 (converted)
  half-life: 34.3 ± 9.8 h
Once daily
  steady state reached: after the 7th administration
overall
  Accumulation index: ~2.66
